Structures can show the parent of a compound that is named as a salt. Where two headings read alike, the source gives them in different places.
System: HCT116 cells
Experiment: HCT116 cytotoxic activity assay
Type: cell-based
Settings: Homo sapiens, HCT-116, 72 h with compound, Alamar Blue readout
[1] = read-out: IC50 in the HCT116 cytotoxic activity assay
[2] = read-out: IC50 in the HCT116 cytotoxic activity assay (upper bound of the class >500 nM)

Experimental: Human tumor cells, e.g., HCT116 cells, are seeded in a 96-well plate at 3.0×10^3 cells/well and grown in 100 μl of RPMI complete media (Invitrogen Corporation, Grand Island, N.Y.) containing 10% fetal bovine serum (Hyclone, Logan, Utah) and 10 mM HEPES and at 37° C. for 16 h in an incubator with 5% CO2. To each well, 50 μl of additional growth media containing 20 μM to 60 nM concentrations of compound with 0.2% DMSO is added. Cells are grown for another 72 h at 37° C. 20 μl of Alamar Blue (Trek Diagnostic Systems, Inc., Cleveland, Ohio) reagent is added to each well and incubated for 4 h at 37° C. Plates are read in a SpectraMax Gemini (Molecular Devices, CA) with 544 nm excitation and 590 nm emission wavelength. IC50 values are determined by linear regression analysis of log drug concentration versus percent inhibition.

Row | SMILES | IC50 [1] [nM] | IC50 [2] [nM]
1 | N#Cc1cc(Oc2ccc(Nc3cc(/C=C/c4ccc(F)cc4)nc(N)n3)cc2)ccn1 [Example 3, 4-[4-({2-amino-6-[(E)-2-(4-fluorophenyl)vinyl]pyrimidin-4-yl}amino)phenoxy]pyridine-2-carbonitrile] | ≤ 500 | –
2 | Nc1ccc(/C=C\c2cc(Nc3ccc(Oc4ccnc(C(F)(F)F)c4)cc3)nc(N)n2)cc1 [Example 39B, 6-[(Z)-2-(4-aminophenyl)vinyl]-N^4-(4-{[2-(trifluoromethyl)pyridin-4-yl]oxy}phenyl)pyrimidine-2,4-diamine trifluoroacetate] | > 500 | ≤ 10000
3 | COc1cccc(CCc2cc(Nc3ccc(Oc4ccnc(C(F)(F)F)c4)cc3)nc(N)n2)c1 [Example 31, 6-[2-(3-methoxyphenyl)ethyl]-N4-(4-{[2-(trifluoromethyl)pyridin-4-yl]oxy}phenyl)pyrimidine-2,4-diamine] | ≤ 500 | –
4 | NCCCc1cc(Nc2ccc(Oc3ccnc(C(F)(F)F)c3)cc2)nc(N)n1 [Example 14, 6-(3-aminopropyl)-N^4-(4-{[2-(trifluoromethyl)pyridin-4-yl]oxy}phenyl)pyrimidine-2,4-diamine hydrochloride] | > 500 | ≤ 10000
5 | C=C(OCC)c1cc(Nc2ccc(Oc3ccnc(C(F)(F)F)c3)cc2)nc(N)n1 [Example 1, 6-(1-ethoxyvinyl)-N^4-(4-{[2-(trifluoromethyl)pyridin-4-yl]oxy}phenyl)pyrimidine-2,4-diamine] | > 500 | ≤ 10000
6 | Nc1nc(/C=C/CCO)cc(Nc2ccc(Oc3ccnc(C(F)(F)F)c3)cc2)n1 [Example 8, (3E)-4-[2-amino-6-[(4-{[2-(trifluoromethyl)pyridin-4-yl]oxy}phenyl)amino]pyrimidin-4-yl]but-3-en-1-ol] | ≤ 500 | –
7 | Nc1nc(C#Cc2ccc(F)cc2)cc(Nc2ccc(Oc3ccnc(C(F)(F)F)c3)cc2)n1 [Example 22, 6-[(4-fluorophenyl)ethynyl]-N^4-(4-{[2-(trifluoromethyl)pyridin-4-yl]oxy}phenyl)pyrimidine-2,4-diamine] | ≤ 500 | –
8 | Nc1nc(CCc2ccc(F)cc2)cc(Nc2ccc(Oc3ccnc(C(F)(F)F)c3)cc2)n1 [Example 29, 6-[2-(4-fluorophenyl)ethyl]-N^4-(4-{[2-(trifluoromethyl)pyridin-4-yl]oxy}phenyl)pyrimidine-2,4-diamine] | ≤ 500 | –
9 | Nc1nc(CCC(O)CO)cc(Nc2ccc(Oc3ccnc(C(F)(F)F)c3)cc2)n1 (stereo not drawn) [Example 17, 4-{2-amino-6-[(4-{[2-(trifluoromethyl)pyridin-4-yl]oxy}phenyl)amino]pyrimidin-4-yl}butane-1,2-diol] | > 500 | ≤ 10000
10 | Nc1nc(CCc2cccc(O)c2)cc(Nc2ccc(Oc3ccnc(C(F)(F)F)c3)cc2)n1 [Example 35, 3-(2-{2-amino-6-[(4-{[2-(trifluoromethyl)pyridin-4-yl]oxy}phenyl)-amino]pyrimidin-4-yl}ethyl)phenol] | > 500 | ≤ 10000
11 | Nc1ccc(/C=C/c2cc(Nc3ccc(Oc4ccnc(C(F)(F)F)c4)cc3)nc(N)n2)cc1 [Example 39A, 6-[(E)-2-(4-aminophenyl)vinyl]-N^4-(4-{[2-(trifluoromethyl)pyridin-4-yl]oxy}phenyl)pyrimidine-2,4-diamine trifluoroacetate] | > 500 | ≤ 10000
12 | Nc1nc(CCCO)cc(Nc2ccc(Oc3ccnc(C(F)(F)F)c3)cc2)n1 [Example 16, 4-{2-amino-6-[(4-{[2-(trifluoromethyl)pyridin-4-yl]oxy}phenyl)amino]pyrimidin-4-yl}propan-1-ol] | ≤ 500 | –
13 | Nc1nc(/C=C/c2ccc(F)cc2)cc(Nc2ccc(Oc3ccnc(C(F)(F)F)c3)cc2)n1 [Example 5, 6-[(E)-2-(4-fluorophenyl)vinyl]-N^4-(4-{[2-(trifluoromethyl)pyridin-4-yl]oxy}phenyl)pyrimidine-2,4-diamine] | ≤ 500 | –
14 | Nc1nc(CCCCO)cc(Nc2ccc(Oc3ccnc(C(F)(F)F)c3)cc2)n1 [Example 15, 4-{2-amino-6-[(4-{[2-(trifluoromethyl)pyridin-4-yl]oxy}phenyl)amino]pyrimidin-4-yl}butan-1-ol] | ≤ 500 | –
15 | CC(O)c1cc(Nc2ccc(Oc3ccnc(C(F)(F)F)c3)cc2)nc(N)n1 (stereo not drawn) [Example 2, 1-{2-amino-6-[(4-{[2-(trifluoromethyl)pyridin-4-yl]ox-}phenyl)amino]pyrimidin-4-yl}ethanol] | > 500 | ≤ 10000
16 | Nc1ccc(CCc2cc(Nc3ccc(Oc4ccnc(C(F)(F)F)c4)cc3)nc(N)n2)cc1 [Example 40, 6-[2-(4-aminophenyl)ethyl]-N^4-(4-{[2-(trifluoromethyl)pyridin-4-yl]oxy}phenyl)pyrimidine-2,4-diamine trifluoroacetate] | ≤ 500 | –
17 | Cc1cc(Oc2ccc(Nc3cc(/C=C/c4ccccc4)nc(N)n3)cc2)ccn1 [Example 41, N^4-{4-[(2-methylpyridin-4-yl)oxy]phenyl}-6-[(E)-2-phenylvinyl]-pyrimidine-2,4-diamine] | ≤ 500 | –
